# From PubChem BioAssay (NCI)
#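 How tested: cells in 96-well plates exposed to compound for 48 hours at five concentrations. GI50 marks 50% less growth. TGI marks complete inhibition of growth.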
# Key:
# Experiment in all cases: growth of human tumour cells (NCI), 48 h
# 786-0 renal = tested on: 786-0 renal
# A498 renal = tested on: A498 renal
# A549 NSCLC = tested on: A549 NSCLC
# ACHN renal = tested on: ACHN renal
# BT-549 breast = tested on: BT-549 breast
# CAKI-1 renal = tested on: CAKI-1 renal
# CCRF-CEM leukemia = tested on: CCRF-CEM leukemia
# COLO 205 colon = tested on: COLO 205 colon
# DU-145 prostate = tested on: DU-145 prostate
# EKVX NSCLC = tested on: EKVX NSCLC
# HCC-2998 colon = tested on: HCC-2998 colon
# HCT-116 colon = tested on: HCT-116 colon
# HCT-15 colon = tested on: HCT-15 colon
# HL-60(TB) leukemia = tested on: HL-60(TB) leukemia
# HOP-62 NSCLC = tested on: HOP-62 NSCLC
# HOP-92 NSCLC = tested on: HOP-92 NSCLC
# HS 578T breast = tested on: HS 578T breast
# HT29 colon = tested on: HT29 colon
# IGROV1 ovarian = tested on: IGROV1 ovarian
# K-562 leukemia = tested on: K-562 leukemia
# KM12 colon = tested on: KM12 colon
# LOX IMVI melanoma = tested on: LOX IMVI melanoma
# M14 melanoma = tested on: M14 melanoma
# MALME-3M melanoma = tested on: MALME-3M melanoma
# MCF7 breast = tested on: MCF7 breast
# MDA-MB-231 breast = tested on: MDA-MB-231 breast
# MDA-MB-435 = tested on: MDA-MB-435
# MOLT-4 leukemia = tested on: MOLT-4 leukemia
# NCI-H226 lung = tested on: NCI-H226 lung
# NCI-H23 lung = tested on: NCI-H23 lung
# NCI-H460 lung = tested on: NCI-H460 lung
# NCI-H522 lung = tested on: NCI-H522 lung
# OVCAR-3 ovarian = tested on: OVCAR-3 ovarian
# OVCAR-4 ovarian = tested on: OVCAR-4 ovarian
# OVCAR-5 ovarian = tested on: OVCAR-5 ovarian
# OVCAR-8 ovarian = tested on: OVCAR-8 ovarian
# PC-3 prostate = tested on: PC-3 prostate
# RPMI-8226 leukemia = tested on: RPMI-8226 leukemia
# SF-268 CNS = tested on: SF-268 CNS
# SF-295 CNS = tested on: SF-295 CNS
# SF-539 CNS = tested on: SF-539 CNS
# SK-MEL-2 melanoma = tested on: SK-MEL-2 melanoma
# SK-MEL-28 melanoma = tested on: SK-MEL-28 melanoma
# SK-MEL-5 melanoma = tested on: SK-MEL-5 melanoma
# SK-OV-3 ovarian = tested on: SK-OV-3 ovarian
# SN12C renal = tested on: SN12C renal
# SNB-19 CNS = tested on: SNB-19 CNS
# SNB-75 CNS = tested on: SNB-75 CNS
# SR leukemia = tested on: SR leukemia
# SW-620 colon = tested on: SW-620 colon
# TK-10 renal = tested on: TK-10 renal
# U251 CNS = tested on: U251 CNS
# UACC-257 melanoma = tested on: UACC-257 melanoma
# UACC-62 melanoma = tested on: UACC-62 melanoma
# UO-31 renal = tested on: UO-31 renal
# NCI/ADR-RES ovarian = tested on: NCI/ADR-RES ovarian
# RXF 393 renal = tested on: RXF 393 renal
# T-47D breast = tested on: T-47D breast
structure (smiles),measurement,setting,value
COc1ccc2c(c1)OC1=C(C(=O)OC1)C2c1cc(OC)c2c(c1)OCO2 (stereo not given),GI50,786-0 renal,0.0506 µM
same,TGI,786-0 renal,> 100 µM
same,GI50,A498 renal,0.0205 µM
same,TGI,A498 renal,0.0923 µM
same,GI50,A549 NSCLC,0.0459 µM
same,TGI,A549 NSCLC,> 100 µM
same,GI50,ACHN renal,0.267 µM
same,TGI,ACHN renal,> 100 µM
same,TGI,BT-549 breast,> 100 µM
same,GI50,CAKI-1 renal,0.108 µM
same,TGI,CAKI-1 renal,> 100 µM
same,GI50,CCRF-CEM leukemia,0.0378 µM
same,TGI,CCRF-CEM leukemia,> 100 µM
same,GI50,COLO 205 colon,0.031 µM
same,TGI,COLO 205 colon,0.0908 µM
same,GI50,DU-145 prostate,0.0364 µM
same,TGI,DU-145 prostate,0.459 µM
same,TGI,EKVX NSCLC,> 100 µM
same,GI50,HCC-2998 colon,0.0424 µM
same,TGI,HCC-2998 colon,> 35.1 µM
same,GI50,HCT-116 colon,0.0366 µM
same,TGI,HCT-116 colon,7.16 µM
same,GI50,HCT-15 colon,0.0464 µM
same,TGI,HCT-15 colon,> 100 µM
same,GI50,HL-60(TB) leukemia,0.0342 µM
same,GI50,HOP-62 NSCLC,0.0411 µM
same,TGI,HOP-62 NSCLC,> 100 µM
same,GI50,HOP-92 NSCLC,28.6 µM
same,TGI,HOP-92 NSCLC,> 100 µM
same,GI50,HS 578T breast,0.0348 µM
same,TGI,HS 578T breast,> 100 µM
same,GI50,HT29 colon,0.0328 µM
same,TGI,HT29 colon,> 100 µM
same,GI50,IGROV1 ovarian,0.0716 µM
same,TGI,IGROV1 ovarian,> 100 µM
same,GI50,K-562 leukemia,0.033 µM
same,TGI,K-562 leukemia,> 100 µM
same,GI50,KM12 colon,0.0304 µM
same,TGI,KM12 colon,0.416 µM
same,GI50,LOX IMVI melanoma,0.0683 µM
same,TGI,LOX IMVI melanoma,> 100 µM
same,GI50,M14 melanoma,0.0223 µM
same,TGI,M14 melanoma,0.0552 µM
same,GI50,MALME-3M melanoma,> 100 µM
same,TGI,MALME-3M melanoma,> 100 µM
same,GI50,MCF7 breast,0.0342 µM
same,TGI,MCF7 breast,> 100 µM
same,GI50,MDA-MB-231 breast,0.0689 µM
same,TGI,MDA-MB-231 breast,> 100 µM
same,GI50,MDA-MB-435,< 0.0122 µM
same,TGI,MDA-MB-435,0.0371 µM
same,GI50,MOLT-4 leukemia,0.0737 µM
same,TGI,MOLT-4 leukemia,> 100 µM
same,GI50,NCI-H226 lung,0.0489 µM
same,GI50,NCI-H23 lung,0.0441 µM
same,TGI,NCI-H23 lung,> 100 µM
same,GI50,NCI-H460 lung,0.0374 µM
same,TGI,NCI-H460 lung,> 100 µM
same,GI50,NCI-H522 lung,< 0.0111 µM
same,TGI,NCI-H522 lung,0.0472 µM
same,GI50,OVCAR-3 ovarian,0.0214 µM
same,TGI,OVCAR-3 ovarian,0.0458 µM
same,GI50,OVCAR-4 ovarian,0.0597 µM
same,TGI,OVCAR-4 ovarian,> 100 µM
same,GI50,OVCAR-5 ovarian,0.153 µM
same,TGI,OVCAR-5 ovarian,> 100 µM
same,GI50,OVCAR-8 ovarian,0.0516 µM
same,TGI,OVCAR-8 ovarian,> 100 µM
same,GI50,PC-3 prostate,0.0403 µM
same,TGI,PC-3 prostate,> 100 µM
same,GI50,RPMI-8226 leukemia,0.0487 µM
same,TGI,RPMI-8226 leukemia,> 100 µM
same,GI50,SF-268 CNS,0.0795 µM
same,TGI,SF-268 CNS,> 100 µM
same,GI50,SF-295 CNS,0.0283 µM
same,TGI,SF-295 CNS,> 100 µM
same,GI50,SF-539 CNS,0.0333 µM
same,TGI,SF-539 CNS,> 100 µM
same,GI50,SK-MEL-2 melanoma,0.0405 µM
same,TGI,SK-MEL-2 melanoma,> 100 µM
same,GI50,SK-MEL-28 melanoma,0.0342 µM
same,TGI,SK-MEL-28 melanoma,> 100 µM
same,GI50,SK-MEL-5 melanoma,0.0383 µM
same,TGI,SK-MEL-5 melanoma,0.325 µM
same,GI50,SK-OV-3 ovarian,0.0336 µM
same,GI50,SN12C renal,0.102 µM
same,TGI,SN12C renal,> 100 µM
same,GI50,SNB-19 CNS,0.0531 µM
same,TGI,SNB-19 CNS,> 100 µM
same,GI50,SNB-75 CNS,0.0297 µM
same,TGI,SNB-75 CNS,> 100 µM
same,GI50,SR leukemia,0.0313 µM
same,TGI,SR leukemia,> 100 µM
same,GI50,SW-620 colon,0.0407 µM
same,TGI,SW-620 colon,> 100 µM
same,GI50,TK-10 renal,0.268 µM
same,TGI,TK-10 renal,> 100 µM
same,GI50,U251 CNS,0.0429 µM
same,TGI,U251 CNS,> 100 µM
same,GI50,UACC-257 melanoma,> 46.1 µM
same,TGI,UACC-257 melanoma,> 100 µM
same,GI50,UACC-62 melanoma,0.0478 µM
same,TGI,UACC-62 melanoma,> 100 µM
same,GI50,UO-31 renal,0.689 µM
same,TGI,UO-31 renal,> 100 µM
COc1ccc2c(c1)CCN1CCc3cc(OC)c(OC)cc3CC21 (stereo not given),TGI,786-0 renal,> 100 µM
same,TGI,A498 renal,> 100 µM
same,TGI,A549 NSCLC,> 100 µM
same,TGI,ACHN renal,> 100 µM
same,TGI,BT-549 breast,55.6 µM
same,TGI,CAKI-1 renal,> 100 µM
same,TGI,CCRF-CEM leukemia,> 100 µM
same,TGI,COLO 205 colon,> 100 µM
same,TGI,DU-145 prostate,> 100 µM
same,TGI,EKVX NSCLC,> 10 µM
same,TGI,HCC-2998 colon,> 100 µM
same,TGI,HCT-116 colon,> 100 µM
same,TGI,HCT-15 colon,> 100 µM
same,TGI,HOP-92 NSCLC,> 100 µM
same,TGI,HS 578T breast,> 100 µM
same,TGI,HT29 colon,> 100 µM
same,TGI,IGROV1 ovarian,> 10 µM
same,TGI,K-562 leukemia,> 100 µM
same,TGI,KM12 colon,> 100 µM
same,TGI,LOX IMVI melanoma,> 100 µM
same,TGI,M14 melanoma,> 100 µM
same,TGI,MCF7 breast,> 100 µM
same,TGI,MDA-MB-231 breast,> 100 µM
same,TGI,MDA-MB-435,> 100 µM
same,TGI,MOLT-4 leukemia,> 100 µM
same,TGI,NCI-H226 lung,> 100 µM
same,TGI,NCI-H23 lung,> 100 µM
same,TGI,NCI-H522 lung,> 10 µM
same,TGI,NCI/ADR-RES ovarian,> 100 µM
same,TGI,OVCAR-4 ovarian,> 100 µM
same,TGI,OVCAR-5 ovarian,> 100 µM
same,TGI,OVCAR-8 ovarian,> 100 µM
same,TGI,RPMI-8226 leukemia,> 100 µM
same,TGI,RXF 393 renal,> 100 µM
same,TGI,SF-268 CNS,> 100 µM
same,TGI,SF-295 CNS,> 100 µM
same,TGI,SF-539 CNS,> 100 µM
same,TGI,SK-MEL-28 melanoma,> 100 µM
same,TGI,SK-OV-3 ovarian,> 100 µM
same,TGI,SN12C renal,> 100 µM
same,TGI,SNB-19 CNS,> 100 µM
same,TGI,SNB-75 CNS,> 100 µM
same,TGI,SR leukemia,> 100 µM
same,TGI,SW-620 colon,> 100 µM
same,TGI,T-47D breast,> 100 µM
same,TGI,TK-10 renal,> 100 µM
same,TGI,U251 CNS,> 100 µM
same,TGI,UACC-257 melanoma,> 100 µM
same,TGI,UACC-62 melanoma,> 100 µM
same,TGI,UO-31 renal,> 100 µM
